Reference: PubChem BioAssay AID506 (SGCOxCompounds, 2006)

Target: Serine/threonine-protein kinase Nek2 (Homo sapiens) (UniProt P51955)
Experiment: ligand-induced stabilization of human NEK2 kinase – biophysical, DSF, SYPRO orange, recombinant protein (AID 506)
Settings: recombinant NEK2, DSF thermal shift, at 10 µM, protein 2 µM, hits give high values

Sequence of Serine/threonine-protein kinase Nek2 (Homo sapiens) (P51955 whole entry, looked up): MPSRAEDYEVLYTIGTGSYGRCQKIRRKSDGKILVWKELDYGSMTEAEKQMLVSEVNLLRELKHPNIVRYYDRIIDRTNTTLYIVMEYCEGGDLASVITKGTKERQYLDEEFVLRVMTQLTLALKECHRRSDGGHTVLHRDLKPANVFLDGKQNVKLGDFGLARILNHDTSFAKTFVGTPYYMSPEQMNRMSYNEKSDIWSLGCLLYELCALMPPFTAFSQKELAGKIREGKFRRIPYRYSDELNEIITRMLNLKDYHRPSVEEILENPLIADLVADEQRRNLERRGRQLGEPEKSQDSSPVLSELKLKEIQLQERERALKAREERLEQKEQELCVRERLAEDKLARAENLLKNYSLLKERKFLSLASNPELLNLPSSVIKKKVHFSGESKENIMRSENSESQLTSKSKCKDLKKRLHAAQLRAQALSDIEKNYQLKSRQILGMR

Compound | Tm shift
Cc1cc(Nc2nc(-c3ccccc3)nc3ccccc23)n[nH]1 | 3.7 °C
O=C1C(C2=C3C(=Nc4ccccc43)/C(=C\c3ccc(O)cc3)C2=O)=C2C(=Nc3ccccc32)/C1=C\c1ccc(O)cc1 | 3.2 °C
CCN(CC)CCNC(=O)c1c(C)[nH]c(/C=C2\C(=O)Nc3ccc(Cl)cc32)c1C | 5.4 °C
Cn1cc(/C=C2\C(=O)Nc3ccc(S(N)(=O)=O)cc32)c2ccccc21 | 6 °C
Nc1nc(Nc2ccc(S(N)(=O)=O)cc2)nn1C(=S)Nc1c(F)cccc1F | 3.1 °C
C=CCNC(=O)c1cccc2c1-c1ccccc1C2=O | 4.6 °C
Nc1cccc(-c2cc3c(Oc4cccc(O)c4)ncnc3[nH]2)c1 | 3.3 °C
Nc1cc2ncnc(Nc3cccc(Br)c3)c2cc1N | 3.3 °C
OCC(O)CCO/N=C1/C(c2c(O)[nH]c3ccccc23)=Nc2ccccc21 (stereo unspecified) | 3.3 °C
COc1cccc(-c2cnn3ccc(Nc4cccc(Cl)c4)nc23)c1 | 3.2 °C
O=c1c(O)c(-c2ccc(O)c(O)c2)oc2cc(O)cc(O)c12 | 3.4 °C
NC(=O)Nc1sc(-c2ccccc2)cc1C(N)=O | 3.1 °C
NS(=O)(=O)c1ccc(Nc2nc(OCC3CCCCC3)c3[nH]cnc3n2)cc1 | 5.6 °C
O=Nc1c(-c2c(O)[nH]c3ccc(S(O)(O)O)cc23)[nH]c2ccccc12 | 3.2 °C
Clc1cccc(Nc2ccn3ncc(-c4ccc5c(c4)OCO5)c3n2)c1 | 3.3 °C
O=C1NCc2c1c1c3ccccc3[nH]c1c1[nH]c3ccccc3c21 | 3.7 °C
